Experimental findings from publication PMC10829302 (BMC Microbiology, 2024) are described below.

As usually defined, the IC50 is the concentration needed to halve the response being measured. A low value points to inhibition by little substance.

Each structure is given as a SMILES string.

For this assay, the target named is T1, tubulin (α/β heterodimer; β-tubulin) (Sus scrofa, UniProt P02554).
T1 construct: heterodimer of two closely related 55 kDa proteins (α and β tubulins), isolated from Porcine brain tissue; with α-tubulin
Kind of assay: tubulin polymerization assay with purified porcine brain tubulin (Cytoskeleton BK011P), positive control. It counts as biochemical.

T1 sequence (P02554 whole entry): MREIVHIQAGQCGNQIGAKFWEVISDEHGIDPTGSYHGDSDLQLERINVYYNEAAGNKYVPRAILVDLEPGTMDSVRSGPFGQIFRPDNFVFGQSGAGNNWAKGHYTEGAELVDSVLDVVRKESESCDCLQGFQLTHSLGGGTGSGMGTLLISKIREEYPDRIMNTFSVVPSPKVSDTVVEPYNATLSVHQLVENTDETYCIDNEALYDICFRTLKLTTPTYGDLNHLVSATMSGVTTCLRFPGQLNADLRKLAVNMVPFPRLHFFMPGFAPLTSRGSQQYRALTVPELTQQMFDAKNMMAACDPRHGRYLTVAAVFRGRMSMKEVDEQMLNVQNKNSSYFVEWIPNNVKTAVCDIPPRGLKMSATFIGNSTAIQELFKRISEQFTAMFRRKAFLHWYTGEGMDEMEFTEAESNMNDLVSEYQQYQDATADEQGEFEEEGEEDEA
T1 sequence (P02550 whole entry partner): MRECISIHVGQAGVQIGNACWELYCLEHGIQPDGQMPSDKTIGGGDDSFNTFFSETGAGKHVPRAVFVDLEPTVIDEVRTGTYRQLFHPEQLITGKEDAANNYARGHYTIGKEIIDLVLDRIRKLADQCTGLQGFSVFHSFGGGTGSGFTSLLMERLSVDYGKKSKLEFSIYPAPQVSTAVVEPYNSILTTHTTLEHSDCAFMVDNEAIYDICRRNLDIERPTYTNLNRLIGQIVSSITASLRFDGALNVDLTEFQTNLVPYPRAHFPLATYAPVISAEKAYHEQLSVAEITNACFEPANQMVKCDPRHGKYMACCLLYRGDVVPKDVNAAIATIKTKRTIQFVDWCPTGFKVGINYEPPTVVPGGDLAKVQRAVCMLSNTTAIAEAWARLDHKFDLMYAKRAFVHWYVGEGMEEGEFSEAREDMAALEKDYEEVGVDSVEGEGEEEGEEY

On to `CC(=O)O[C@H]1C(=O)[C@@]2(C)[C@H]([C@H](OC(=O)c3ccccc3)[C@]3(O)C[C@H](OC(=O)[C@H](O)[C@@H](NC(=O)c4ccccc4)c4ccccc4)C(C)=C1C3(C)C)[C@]1(OC(C)=O)CO[C@@H]1C[C@@H]2O` [Paclitaxel], for which half-maximal inhibition (IC50) required 2340 nM.
